# Values of other authors as cited in patent US11466400B2, “Finish composition” (Hexcel Corporation, priority 2018, dated 2022).
compound,measurement,value
O=C(O)CNCC(=O)O [Iminodiacetic acid],pKa,1.873
